Laboratory results as given in US6294649A, “Method of cell inhibition using polypeptides derived from the venom of the Austrialian jumper ant Myrmecia pilosula” (Northern Sydney Area Health Service, priority 1996, dated 2001).
Like-named read-outs stand apart in the source and are kept apart here. No end group written: not given here.

Assays:
cells = test: Cytotoxicity to cells (cell proliferation and flow cytometry); type: cell-based; details: cells tested
Method: (§1) Cell proliferation and flow cytometry have been used to determine the cytotoxic effects on cells. Cell proliferation involves growing cells to log-phase growth and adding Pilosulin 1 at different final peptide concentrations and ^3 H-methyl thymidine at the same time. The cells are incubated at 37° C. for 16 hours, harvested, lysed and washed and the cells liquid scintillation counted. Flow cytometry employs the exclusion of propidium iodide from cells as an index of their viability. In experiments where fluorescent labelled monoclonal antibodies recognising cell specific markers were used, exclusion of 7-actinomycin D was used as the index of cell viability. In these latter experiments cells were incubated with the fluorescent antibodies and then washed to remove unbound antibodies. The treated cells were stored on ice and Pilosulin 1 added 5 minutes prior to flow cytometric measurement.

Red blood cells = test: Red blood cell lysis; type: cell-based; details: 1% (v/v) red blood cells in PBS; peptides 0.3125-80 μM
Method: Red blood cells were prepared from fresh whole blood. Red blood cells were diluted to 1% (v/v) with PBS and 0.1 mL aliquots added to a 96 well microtitre plate. Venom and venom peptides were added in 5 μL of normal saline. Whole ant venom concentration (final): 80, 40, 20, 10, 5, 2.5, 1.25, 0.625, 0.3125 4μg/mL. Venom peptide concentration (final): 80, 40, 20, 10, 5, 2.5, 1.25, 0.625, 0.3125 μM.

EBV-transformed B-cells = test: Flow cytometry cell viability (propidium iodide exclusion); type: cell-based, human; details: 5 μM, treated for 5 minutes; untreated control about 15% permeable
Method: as §1
Flow cytometry can measure cell viability by their ability to exclude a fluorescent dye such as propidium iodide or 7-actinomycin D. EBV-transformed B-cells were cultured to log-phase growth and venom and venom peptides added. […] Cells were treated for 5 minutes with Pilosulin 1, Pilosulin 2 and melittin over a concentration range of 0.1 to 10 μM and then cell numbers were measured in the flow cytometer.

[1] = system: Antibody-labelled (CD3-FITC) white blood cells (T-cell); test: Kinetics of cell killing at different temperatures (7-AAD, flow cytometry); type: cell-based; details: 3 μM melittin
Method: The kinetics of Pilosulin 1 and melittin cell killing at different temperatures were investigated. Antibody-labelled (CD3-FITC) white blood cells were incubated with 7-AAD (4 μg/mL) and either 1.5 μM Pilosulin 1 or 3 μM melittin. Three tubes were prepared for each peptide and the tubes were incubated at either 0° C. (circles), room temperature (triangles), or 37° C. (diamonds). Samples of each tube were analysed on a flow cytometer at time zero and thereafter at 2, 5 10 and 15 minutes.

[2] = system: Epstein Barr-transformed human B-cells; test: Cell proliferation (3H-methyl-thymidine); type: cell-based
Method: as §1
Epstein Barr-transformed human B-cells grown to log phase. One hundred […] of cells (10^5 cells) were placed in the wells of microtitre plates. Venom and venom peptides added to the wells in […] to give final concentrations used in the red cell lysis experiment. One μCi of ^3 H-methyl-thymidine was added to the wells and the plates incubated overnight at 37° C. Cells harvested 17 hr later and counted.

granulocyte population = test: Relative cytotoxicity for leucocyte components, flow cytometry (7-actinomycin D uptake); type: cell-based
Method: as §1
The relative cytotoxicity of Pilosulin 1 for the different components of the leucocyte population was studied and the results are shown in FIG. 3.

[3] = system: solid tumour cell lines including a breast cancer, a brain tumour and a kidney cell tumour line; test: Cytotoxicity for solid tumour cell lines; type: cell-based
Method: as §1

[4] = system: normal blood cells, in particular, lymphocytes monocytes and natural killer cells; test: Cytotoxicity for normal blood cells; type: cell-based
Method: as §1

[5] = system: cancer cells of myeloid and lymphoid origin; test: Cytotoxicity towards cancer cells; type: cell-based; details: in particular rapidly dividing cancer cells of myeloid and lymphoid origin

For “KLGPKVAKVLPKVMKEAIPMAVEMAKSQEEQQPQ [peptide 2]”, the cytotoxicity to cells (cells) was “no detectable cytotoxicity”.
`CC[C@H](C)[C@H](NC(=O)CN)C(=O)NCC(=O)N[C@@H](C)C(=O)N[C@H](C(=O)N[C@@H](CC(C)C)C(=O)N[C@@H](CCCCN)C(=O)N[C@H](C(=O)N[C@@H](CC(C)C)C(=O)N[C@H](C(=O)N[C@H](C(=O)NCC(=O)N[C@@H](CC(C)C)C(=O)N1CCC[C@H]1C(=O)N[C@@H](C)C(=O)N[C@@H](CC(C)C)C(=O)N[C@H](C(=O)N[C@@H](CO)C(=O)N[C@@H](Cc1c[nH]c2ccccc12)C(=O)N[C@H](C(=O)N[C@@H](CCCCN)C(=O)N[C@@H](CCCNC(=N)N)C(=O)N[C@@H](CCCCN)C(=O)N[C@@H](CCCNC(=N)N)C(=O)N[C@@H](CCC(N)=O)C(=O)N[C@@H](CCC(N)=O)C(N)=O)[C@@H](C)CC)[C@@H](C)CC)[C@@H](C)O)[C@@H](C)O)C(C)C)C(C)C` [Melittin] was tested, and the “efficiency on a molar basis in the lysis of red blood cells” value (Red blood cells) was “most efficient”, the “% Viable Cells” value (EBV-transformed B-cells) was 53.5% and the cells killed ([1]; 0° C., 10 minutes) was 25%. For the same compound, the cells killed ([1]; 37° C., 2 minutes) was “all cells were killed”, the cells killed ([1]; room temperature, 2 minutes) was 85% and the cells killed ([1]; room temperature, 5 minutes) was “killed all cells”.
“GLGSVFGRLARILGRVIPKVAKKLGPKVAKVLPKVMKEAIPMAVEMAKSQEEQQPQ [Pilosulin 1]” was tested, and the “cytotoxicity for proliferating Epstein-Barr Virus transformed B-cells” value [2] was “cytotoxic”, the “effectiveness as a cytotoxin at 50% cell viability (relative)” value ([2]; 3H-methyl-thymidine, overnight at 37° C., comparator not named) was “approximately 4 times” and the cytotoxicity for granulocytes (granulocyte population) was “resistant”. The “cytotoxicity for solid tumour cell lines” value [3] was “cytotoxic”, the “cytotoxicity for normal blood cells” value [4] was “low” and the “cytotoxicity for normal blood cells” value ([4]; listed as Pilostilin 1) was “cytotoxic”. For the same compound, the “cytotoxicity towards cancer cells” value [5] was “potent cytotoxicity”.
